Drawing on patent US8324250B2 (Hoffmann-La Roche Inc., priority 2009, dated 2012), this text covers Ki for 24 compounds.

The Ki is a dissociation constant, usually derived from enzyme kinetics or from competition with a known ligand.

The experiment deals with T1, recombinant human NK3 receptor (Homo sapiens, UniProt P29371).
T1 construct: expressed in transfected cells; host or cells: HEK293 cells (transient expression), membranes
T1 sequence (P29371 1-465): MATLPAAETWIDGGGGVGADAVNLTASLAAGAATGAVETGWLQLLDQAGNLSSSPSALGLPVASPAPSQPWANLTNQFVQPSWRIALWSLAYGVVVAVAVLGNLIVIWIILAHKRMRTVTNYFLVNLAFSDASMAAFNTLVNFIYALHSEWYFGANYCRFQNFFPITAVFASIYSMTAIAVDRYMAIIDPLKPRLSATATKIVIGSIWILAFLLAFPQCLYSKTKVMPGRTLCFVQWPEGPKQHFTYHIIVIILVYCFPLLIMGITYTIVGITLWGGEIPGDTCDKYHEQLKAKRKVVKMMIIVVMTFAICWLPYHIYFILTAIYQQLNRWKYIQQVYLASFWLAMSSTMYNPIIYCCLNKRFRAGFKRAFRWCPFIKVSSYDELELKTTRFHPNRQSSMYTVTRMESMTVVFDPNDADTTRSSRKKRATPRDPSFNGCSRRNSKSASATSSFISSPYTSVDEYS
The experiment can be described thus: [3H]SR142801 competition binding assay. To be noted: membranes from HEK293 cells transiently expressing recombinant human NK3 receptor; [3H]SR142801 radioligand; 75 min at RT; Ki by Cheng-Prussoff; read-out: Data Ki (hNK-3 receptor affinity). Put shortly:
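Membranes from HEK293 cells transiently expressing the receptor, 5 μg protein/well, in 50 mM Tris-HCl pH 7.4 with 4 mM MnCl2, 1 μM phosphoramidon, 0.1% BSA; nonspecific binding defined with 10 μM SB222200. Filtration and scintillation counting; IC50 from Hill fit, Ki by Cheng-Prussoff using saturation-derived KD, duplicates.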
On to `CC(C)CC1(C(=O)N[C@@H](C)c2ccc(F)cc2)CCN(C(=O)c2ccc(-c3ccc(F)cc3)cc2)CC1` [Example 122, 1-(4′-Fluoro-biphenyl-4-carbonyl)-4-isobutyl-piperidine-4-carboxylic acid [(S)-1-(4-fluoro-phenyl)-ethyl]-amide], for which the Ki is 25.7 nM.

Take `Cc1noc(-c2ccc(C(=O)N3CCC(C(=O)N[C@@H](C)c4ccc(F)cc4)(c4ccc(F)cn4)CC3)cc2)n1` [Example 126, 5-Fluoro-1′-[4-(3-methyl-[1,2,4]oxadiazol-5-yl)-benzoyl]-2′,3′,5′,6′-tetrahydro-1′H-[2,4′]bipyridinyl-4′-carboxylic acid [(S)-1-(4-fluoro-phenyl)-ethyl]-amide]: the inhibition constant Ki worked out at 93.7 nM.

With `C[C@H](NC(=O)C1(c2ccc(F)cc2)CCN(C(=O)c2ccc(-c3ccc(F)cc3)cc2)CC1)c1cccc(F)c1` [Example 129, 1-(4′-Fluoro-biphenyl-4-carbonyl)-4-(4-fluoro-phenyl)-piperidine-4-carboxylic acid [(S)-1-(3-fluoro-phenyl)-ethyl]-amide], the Ki was determined as 12 nM.

Turning to `O=C(c1ccc(-c2ccc(F)cc2)cc1)N1CCC(C(=O)NC2(c3ccc(F)cc3)CC2)(c2ccc(F)cc2)CC1` [Example 135, 1-(4′-Fluoro-biphenyl-4-carbonyl)-4-(4-fluoro-phenyl)-piperidine-4-carboxylic acid [1-(4-fluoro-phenyl)-cyclopropyl]-amide], the Ki worked out at 26.7 nM.

As to `O=C(c1ccc(-c2ccc(F)cc2)cc1)N1CCC(C(=O)NCc2ccc(F)cc2)(c2ccc(F)cc2)CC1` [Example 136, 1-(4′-Fluoro-biphenyl-4-carbonyl)-4-(4-fluoro-phenyl)-piperidine-4-carboxylic acid 4-fluoro-benzylamide], the Ki came out at 54.9 nM.

As for `O=C(c1ccc(-c2ccc(F)cc2)cc1)N1CCC(C(=O)N[C@@H](CO)c2ccccc2)(c2ccc(F)cc2)CC1` [Example 140, 1-(4′-Fluoro-biphenyl-4-carbonyl)-4-(4-fluoro-phenyl)-piperidine-4-carboxylic acid ((R)-2-hydroxy-1-phenyl-ethyl)-amide], the Ki is 7.8 nM.

As to `O=C(c1ccc(-c2ccc(F)cc2)cc1)N1CCC(C(=O)NCC2CCCCC2)(c2ccc(F)cc2)CC1` [Example 142, 1-(4′-Fluoro-biphenyl-4-carbonyl)-4-(4-fluoro-phenyl)-piperidine-4-carboxylic acid cyclohexylmethyl-amide], the inhibitory constant (Ki) stood at 38.2 nM.

Consider `CC(C)C(NC(=O)C1(c2ccc(F)cc2)CCN(C(=O)c2ccc(-c3ccc(F)cc3)cc2)CC1)c1ccccc1` (stereo not drawn) [Example 143, 1-(4′-Fluoro-biphenyl-4-carbonyl)-4-(4-fluoro-phenyl)-piperidine-4-carboxylic acid (2-methyl-1-phenyl-propyl)-amide], for which the inhibitory constant (Ki) amounted to 6.9 nM.

As to `CC(C)C(NC(=O)C1(c2ccc(F)cc2)CCN(C(=O)c2ccc(-c3ccc(F)cc3)cc2)CC1)c1ccc(F)cc1` (stereo not drawn) [Example 144, 1-(4′-Fluoro-biphenyl-carbonyl)-4-(4-fluoro-phenyl)-piperidne-4-carboxylic acid [1-(4-fluoro-phenyl)-2-methyl-propyl]-amide], the inhibitory constant (Ki) is 10.9 nM.

Regarding `O=C(c1ccc(-c2ccc(F)cc2)cc1)N1CCC(C(=O)NC(c2ccccc2)C(F)(F)F)(c2ccc(F)cc2)CC1` (stereo not drawn) [Example 145, 1-(4′-Fluoro-biphenyl-4-carbonyl)-4-(4-fluoro-phenyl)-piperidine-4-carboxylic acid (2,2,2-trifluoro-1-phenyl-ethyl)-amide], the inhibition constant Ki turned out to be 36.4 nM.

On to `O=C(c1ccc(-c2ccc(F)cc2)cc1)N1CCC(C(=O)NC(c2ccc(F)cc2)C(F)(F)F)(c2ccc(F)cc2)CC1` (stereo not drawn) [Example 146, 1-(4′-Fluoro-biphenyl-4-carbonyl)-4-(4-fluoro-phenyl)-piperidine-4-carboxylic acid [2,2,2-trifluoro-1-(4-fluoro-phenyl)-ethyl]-amide], for which the inhibitory constant (Ki) came out at 36 nM.

In the case of `O=C(c1ccc(-c2ccc(F)cc2)cc1)N1CCC(C(=O)NC(c2ccccc2)C2CC2)(c2ccc(F)cc2)CC1` (stereo not drawn) [Example 147, 1-(4′-Fluoro-biphenyl-4-carbonyl)-4-(4-fluoro-phenyl)-piperidine-4-carboxylic acid (cyclopropyl-phenyl-methyl)-amide], the Ki was 17.6 nM.

With `O=C(c1ccc(-c2ccc(F)cc2)cc1)N1CCC(C(=O)NC(CC2CC2)c2ccccc2)(c2ccc(F)cc2)CC1` (stereo not drawn) [Example 148, 1-(4′-Fluoro-biphenyl-4-carbonyl)-4-(4-fluoro-phenyl)-piperidine-4-carboxylic acid (2-cyclopropyl-1-phenyl-ethyl)-amide], the Ki was 5.8 nM.

Turning to `O=C(c1ccc(-c2ccc(F)cc2)cc1)N1CCC(C(=O)N[C@@H](CO)c2ccc(F)cc2)(c2ccc(F)cc2)CC1` [Example 151, 1-(4′-Fluoro-biphenyl-4-carbonyl)-4-(4-fluoro-phenyl)-piperidine-4-carboxylic acid [(R)-1-(4-fluoro-phenyl)-2-hydroxy-ethyl]-amide], the inhibition constant (Ki) is 11.5 nM.

Turning to `CC(C)C(NC(=O)C1(c2ccc(F)cc2)CCN(C(=O)C2CCN(c3ccc(C#N)cn3)CC2)CC1)c1ccc(F)cc1` (stereo not drawn) [Example 153, 1-(5′-Cyano-3,4,5,6-tetrahydro-2H-[1,2′]bipyridinyl-4-carbonyl)-4-(4-fluoro-phenyl)-piperidine-4-carboxylic acid [1-(4-fluoro-phenyl)-2-methyl-propyl]-amide], the inhibition constant (Ki) stood at 38 nM.

For `N#Cc1ccc(N2CCC(C(=O)N3CCC(C(=O)NC(c4ccc(F)cc4)C(F)(F)F)(c4ccc(F)cc4)CC3)CC2)nc1` (stereo not drawn) [Example 154, 1-(5′-Cyano-3,4,5,6-tetrahydro-2H-[1,2′]bipyridinyl-4-carbonyl)-4-(4-fluoro-phenyl)-piperidine-4-carboxylic acid [2,2,2-trifluoro-1-(4-fluoro-phenyl)-ethyl]-amide], the Ki stood at 75 nM.

As for `C[C@H](NC(=O)C1(c2ccc(F)cc2)CCN(C(=O)C2CCN(c3ccc(C#N)cn3)CC2)CC1)c1cccc(F)c1` [Example 155, 1-(5′-Cyano-3,4,5,6-tetrahydro-2H-[1,2′]bipyridinyl-4-carbonyl)-4-(4-fluoro-phenyl)-piperidine-4-carboxylic acid [(S)-1-(3-fluoro-phenyl)-ethyl]-amide], the inhibitory constant (Ki) was 75 nM.

For `C[C@H](NC(=O)C1(c2ccc(F)cc2)CCN(C(=O)C2CCN(c3ccc(C#N)cn3)CC2)CC1)c1ccc(F)cc1` [Example 156, 1-(5′-Cyano-3,4,5,6-tetrahydro-2H-[1,2′]bipyridinyl-4-carbonyl)-4-(4-fluoro-phenyl)-piperidine-4-carboxylic acid [(S)-1-(4-fluoro-phenyl)-ethyl]-amide], the inhibitory constant (Ki) stood at 87 nM.

As to `Cc1noc(-c2ccc(C(=O)N3CCC(C(=O)NC4(c5ccc(F)cc5)CC4)(c4ccc(F)cc4)CC3)cc2)n1` [Example 157, 4-(4-Fluoro-phenyl)-1-[4-(3-methyl-[1,2,4]oxadiazol-5-yl)-benzoyl]-piperidine-4-carboxylic acid [1-(4-fluoro-phenyl)-cyclopropyl]-amide], the Ki was 9.4 nM.

Turning to `Cc1noc(-c2ccc(C(=O)N3CCC(C(=O)NC(c4ccc(F)cc4)C(C)C)(c4ccc(F)cc4)CC3)cc2)n1` (stereo not drawn) [Example 158, 4-(4-Fluoro-phenyl)-1-[4-(3-methyl-[1,2,4]oxadiazol-5-yl)-benzoyl]-piperidine-4-carboxylic acid [1-(4-fluoro-phenyl)-2-methyl-propyl]-amide], the Ki turned out to be 11 nM.

Turning to `CCN(NC(=O)C1(c2ccc(F)cc2)CCN(C(=O)c2ccc(-c3nc(C)no3)cc2)CC1)c1ccc(F)cc1` [Example 160, 4-(4-Fluoro-phenyl)-1-[4-(3-methyl-[1,2,4]oxodiazol-5-yl)-benzoyl]-piperidine-4-carboxylic acid N′-ethyl-#N!′-(4-fluoro-phenyl)-hydrazide], the inhibition constant (Ki) came to 92 nM.

On to `Cc1noc(-c2ccc(C(=O)N3CCC(C(=O)N[C@@H](C)c4cccc(F)c4)(c4ccc(F)cc4)CC3)cc2)n1` [Example 161, 4-(4-Fluoro-phenyl)-1-[4-(3-methyl-[1,2,4]oxadiazol-5-yl)-benzoyl]-piperidine-4-carboxylic acid [(S)-1-(3-fluoro-phenyl)-ethyl]-amide], for which the Ki stood at 4.6 nM.

On to `Cc1noc(-c2ccc(C(=O)N3CCC(C(=O)NC(C)c4ccc(F)c(C(F)(F)F)c4)(c4ccc(F)cc4)CC3)cc2)n1` (stereo not drawn) [Example 162, 4-(4-Fluoro-phenyl)-1-[4-(3-methyl-[1,2,4]oxadiazol-5-yl)-benzoyl]-piperidine-4-carboxylic acid [1-(4-fluoro-3-trifluoromethyl-phenyl)-ethyl]-amide], for which the inhibition constant (Ki) turned out to be 75 nM.

On to `Cc1nc(-c2ccc(C(=O)N3CCC(C(=O)NC4(c5ccc(F)cc5)CC4)(c4ccc(F)cc4)CC3)cc2)no1` [Example 163, 4-(4-Fluoro-phenyl)-1-[4-(5-methyl-[1,2,4]oxadiazol-3-yl)-benzoyl]-piperidine-4-carboxylic acid [1-(4-fluoro-phenyl)-cyclopropyl]-amide], for which the inhibition constant (Ki) stood at 41 nM.
